Laboratory results taken from the supplement of paper PMC11061612.

Experiments:
[1] = tested on: Becker (Low Grade Glioma); experiment: Bliss excess, mean over the matrix (fraction); higher = more synergy
Summary of the method: (§1)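 Bliss excess equals the observed combination effect minus the expected value EA + EB − EA·EB, where EA and EB are the effects of each agent alone. Combination Emax is the second-highest inhibition within the matrix. Inhibition was scaled from CellTiter-Glo 2.0 luminescence, with 0 set by vehicle wells and 1 by blank wells, after 72 hours of two-drug dosing of cells plated in 1536-well plates.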

[2] = tested on: CHL-1 (Melanoma); experiment: as above
Summary of the method: as §1

[3] = tested on: CML-T1 (Chronic Myelogenous Leukemia); experiment: as above
Summary of the method: as §1

[4] = tested on: COLO-684 (Endometrial Carcinoma); experiment: as above
Summary of the method: as §1

[5] = tested on: EB-3 (Burkitt's Lymphoma); experiment: as above
Summary of the method: as §1

[6] = tested on: FLO-1 (Esophageal Adenocarcinoma); experiment: as above
Summary of the method: as §1

[7] = tested on: HCC-44 (Lung Adenocarcinoma); experiment: as above
Summary of the method: as §1

[8] = tested on: KYM-1 (Rhabdomyosarcoma); experiment: as above
Summary of the method: as §1

[9] = tested on: KYSE-70 (Esophageal Squamous Cell Carcinoma); experiment: as above
Summary of the method: as §1

[10] = tested on: LAMA-84 (Chronic Myelogenous Leukemia); experiment: as above
Summary of the method: as §1

[11] = tested on: LOUCY (T-Lymphoblastic Leukemia); experiment: as above
Summary of the method: as §1

[12] = tested on: NCI-H1755 (Lung Adenocarcinoma); experiment: as above
Summary of the method: as §1

[13] = tested on: NCI-H810 (Non-Small Cell Lung Carcinoma); experiment: as above
Summary of the method: as §1

[14] = tested on: NKM-1 (Acute Myeloid Leukemia); experiment: as above
Summary of the method: as §1

[15] = tested on: OV-90 (Ovarian Carcinoma); experiment: as above
Summary of the method: as §1

[16] = tested on: PANC-02-03 (Pancreatic Carcinoma); experiment: as above
Summary of the method: as §1

[17] = tested on: PC-14 (Lung Adenocarcinoma); experiment: as above
Summary of the method: as §1

[18] = tested on: RMG-I (Ovarian Carcinoma); experiment: as above
Summary of the method: as §1

[19] = tested on: SK-MM-2 (Plasma Cell Myeloma); experiment: as above
Summary of the method: as §1

[20] = tested on: SW684 (Other Solid Carcinomas); experiment: as above
Summary of the method: as §1

[21] = tested on: Becker (Low Grade Glioma); experiment: combination Emax (second highest fraction inhibited in the dose matrix, 72 h); higher = more inhibition; extreme values may be limits of the assay
Summary of the method: as §1

[22] = tested on: CHL-1 (Melanoma); experiment: as above
Summary of the method: as §1

[23] = tested on: CML-T1 (Chronic Myelogenous Leukemia); experiment: as above
Summary of the method: as §1

[24] = tested on: COLO-684 (Endometrial Carcinoma); experiment: as above
Summary of the method: as §1

[25] = tested on: EB-3 (Burkitt's Lymphoma); experiment: as above
Summary of the method: as §1

[26] = tested on: FLO-1 (Esophageal Adenocarcinoma); experiment: as above
Summary of the method: as §1

[27] = tested on: HCC-44 (Lung Adenocarcinoma); experiment: as above
Summary of the method: as §1

[28] = tested on: KYM-1 (Rhabdomyosarcoma); experiment: as above
Summary of the method: as §1

[29] = tested on: KYSE-70 (Esophageal Squamous Cell Carcinoma); experiment: as above
Summary of the method: as §1

[30] = tested on: LAMA-84 (Chronic Myelogenous Leukemia); experiment: as above
Summary of the method: as §1

[31] = tested on: LOUCY (T-Lymphoblastic Leukemia); experiment: as above
Summary of the method: as §1

[32] = tested on: NCI-H1755 (Lung Adenocarcinoma); experiment: as above
Summary of the method: as §1

[33] = tested on: NCI-H810 (Non-Small Cell Lung Carcinoma); experiment: as above
Summary of the method: as §1

[34] = tested on: NKM-1 (Acute Myeloid Leukemia); experiment: as above
Summary of the method: as §1

[35] = tested on: OV-90 (Ovarian Carcinoma); experiment: as above
Summary of the method: as §1

[36] = tested on: PANC-02-03 (Pancreatic Carcinoma); experiment: as above
Summary of the method: as §1

[37] = tested on: PC-14 (Lung Adenocarcinoma); experiment: as above
Summary of the method: as §1

[38] = tested on: RMG-I (Ovarian Carcinoma); experiment: as above
Summary of the method: as §1

[39] = tested on: SK-MM-2 (Plasma Cell Myeloma); experiment: as above
Summary of the method: as §1

[40] = tested on: SW684 (Other Solid Carcinomas); experiment: as above
Summary of the method: as §1

Structure (SMILES)	Bliss excess [1]	Bliss excess [2]	Bliss excess [3]	Bliss excess [4]	Bliss excess [5]	Bliss excess [6]	Bliss excess [7]	Bliss excess [8]	Bliss excess [9]	Bliss excess [10]	Bliss excess [11]	Bliss excess [12]	Bliss excess [13]	Bliss excess [14]	Bliss excess [15]	Bliss excess [16]	Bliss excess [17]	Bliss excess [18]	Bliss excess [19]	Bliss excess [20]	combination Emax [21]	combination Emax [22]	combination Emax [23]	combination Emax [24]	combination Emax [25]	combination Emax [26]	combination Emax [27]	combination Emax [28]	combination Emax [29]	combination Emax [30]	combination Emax [31]	combination Emax [32]	combination Emax [33]	combination Emax [34]	combination Emax [35]	combination Emax [36]	combination Emax [37]	combination Emax [38]	combination Emax [39]	combination Emax [40]
C[C@@H](Nc1cc(F)cc(F)c1)c1cc(C(=O)N(C)C)cc2c(=O)cc(N3CCOCC3)oc12 [AZD8186] + CC(=O)c1c(C)c2cnc(Nc3ccc(N4CCNCC4)cn3)nc2n(C2CCCC2)c1=O [Palbociclib] (first compound max 10 µM, 7x7, partner max 10 µM)	0.127	0.0104	-0.0045	0.0174	0.0129	0.0479	0.0091	-0.031	-0.0106	0.083	0.187	0.069	-0.0224	-0.0435	-0.0541	-0.0157	0.0852	0.0104	0.0299	-0.0005	0.628	0.458	0.931	0.729	0.399	0.599	0.728	0.702	0.355	0.554	0.504	0.602	0.371	0.83	0.137	0.343	0.469	0.497	0.35	0.503
C[C@@H](Oc1cc(-c2cnn(C3CCNCC3)c2)cnc1N)c1c(Cl)ccc(F)c1Cl [Crizotinib] + CC1=C(C(=CC=C1)Cl)NC(=O)C2=CN=C(S2)NC3=CC(=NC(=N3)C)N4CCN(CC4)CCO [Dasatinib] (first compound max 10 µM, 7x7, partner max 2 µM)	0.1	-0.0401	-0.0958	-0.049	-0.0181	0.0436	0.101	-0.0389	-0.0068	0.0136	-0.0383	0.0591	-0.0726	-0.0197	0.0304	-0.0328	0.0183	0.0034	-0.0416	0.0215	0.648	0.349	0.987	0.41	0.639	1	0.962	0.917	0.423	1	0.674	0.983	0.244	0.971	0.591	0.606	1	0.737	0.303	0.758
C[C@@H](Oc1cc(-c2cnn(C3CCNCC3)c2)cnc1N)c1c(Cl)ccc(F)c1Cl [Crizotinib] + Cn1cnc2c(F)c(Nc3ccc(Br)cc3Cl)c(C(=O)NOCCO)cc21 [Selumetinib] (first compound max 10 µM, 7x7, partner max 10 µM)	0.0409	-0.0464	-0.0165	-0.0629	-0.0834	0.031	-0.0103	-0.0202	-0.0364	0.0176	-0.0249	-0.006	-0.123	-0.0543	0.0569	-0.0458	-0.0183	0.0091	-0.0442	-0.0262	0.661	0.0893	0.957	0.452	0.625	0.878	0.916	0.92	0.255	1	0.724	0.983	0.212	0.906	0.742	0.713	0.89	0.59	0.377	0.39
CS(=O)(=O)CCNCc1ccc(-c2ccc3ncnc(Nc4ccc(OCc5cccc(F)c5)c(Cl)c4)c3c2)o1 [Lapatinib] + Cn1cnc2c(F)c(Nc3ccc(Br)cc3Cl)c(C(=O)NOCCO)cc21 [Selumetinib] (first compound max 10 µM, 7x7, partner max 10 µM)	-0.0589	-0.0114	-0.0822	-0.0658	-0.0414	-0.004	0.0326	0.0148	-0.0319	0.0352	0.0378	-0.0173	-0.0554	0.0001	-0.0289	0.0604	0.0206	-0.0833	-0.0116	-0.0411	0.579	0.475	0.637	0.349	0.697	0.572	0.749	0.407	0.214	0.912	0.584	0.539	0.121	0.652	0.729	0.805	0.989	0.586	0.126	0.281
O=C(c1cc(Cc2n[nH]c(=O)c3ccccc23)ccc1F)N1CCN(C(=O)C2CC2)CC1 [Olaparib] + CC1(C)CCC(CN2CCN(c3ccc(C(=O)NS(=O)(=O)c4ccc(NCC5CCOCC5)c([N+](=O)[O-])c4)c(Oc4cnc5[nH]ccc5c4)c3)CC2)=C(c2ccc(Cl)cc2)C1 [Venetoclax] (first compound max 10 µM, 7x7, partner max 1 µM)	-0.0134	-0.0355	0.0685	-0.0346	-0.0328	-0.0251	-0.0278	-0.0388	-0.039	-0.003	0.0365	-0.0395	-0.0541	0.257	-0.0377	-0.0386	-0.0071	-0.0398	0.0141	-0.0606	0.198	0.171	0.946	0.259	0.162	0.209	0.177	0.446	0.0967	0.211	1	0.126	0.271	0.976	0.204	0.107	0.142	0.282	1	0.141
O=C(c1cc(Cc2n[nH]c(=O)c3ccccc23)ccc1F)N1CCN(C(=O)C2CC2)CC1 [Olaparib] + CN(CC[C@H](CSC1=CC=CC=C1)NC2=C(C=C(C=C2)S(=O)(=O)NC(=O)C3=CC=C(C=C3)N4CCC(CC4)[C@H](C5=CC=CC=C5C6=CC=C(C=C6)Cl)O)S(=O)(=O)C(F)(F)F)CCO [AZD4320] (first compound max 10 µM, 7x7, partner max 1 µM)	0.0148	-0.0175	0.0456	-0.0372	-0.0394	-0.0338	-0.0367	-0.0543	-0.0377	-0.0603	-0.0261	-0.0387	-0.0701	0.0827	-0.0165	-0.0488	-0.0113	-0.0382	0.0047	-0.0717	0.164	0.2	0.999	0.213	0.158	0.39	0.173	0.576	0.151	0.617	1	0.159	0.659	1	0.546	0.198	0.199	0.534	1	0.228
O=C(c1cc(Cc2n[nH]c(=O)c3ccccc23)ccc1F)N1CCN(C(=O)C2CC2)CC1 [Olaparib] + COc1nnc2ccc(N3CCC(c4ccc(OCCN5CCN(C)C(=O)[C@H]5C)cc4)CC3)nn12 [AZD5153] (first compound max 10 µM, 7x7, partner max 1 µM)	-0.0004	-0.0554	-0.0113	-0.0132	-0.0549	-0.0174	-0.0341	-0.0479	-0.0305	-0.0335	0.0304	-0.0453	-0.0406	-0.0231	-0.0144	-0.0683	-0.0284	-0.0288	-0.032	-0.0857	0.397	0.418	0.852	0.564	0.694	0.575	0.593	0.862	0.389	0.8	0.749	0.498	0.671	0.898	0.402	0.591	0.431	0.536	0.875	0.415
